Assay results published in patent US12076307B2, “Compositions for prevention or treatment of acute radiation syndrome and other radiation exposure” (priority 2017, dated 2024).
Several values for one entry are separate records, joined by “and”; a condition that tells them apart may be missing. Equal entries are not always repeated.

Legend:
BCRP = target: T1, BCRP (Homo sapiens, UniProt Q9UNQ0); test: Drug transporter inhibition, BCRP; type: in vitro ADME; conditions: 100 nM [3H] estrone-3-sulfate; transfected LLC-PK1 cells
T1 construct: expressed in transfected cells; host or cells: LLC-PK1
T1 sequence (Q9UNQ0 whole entry, species assumed): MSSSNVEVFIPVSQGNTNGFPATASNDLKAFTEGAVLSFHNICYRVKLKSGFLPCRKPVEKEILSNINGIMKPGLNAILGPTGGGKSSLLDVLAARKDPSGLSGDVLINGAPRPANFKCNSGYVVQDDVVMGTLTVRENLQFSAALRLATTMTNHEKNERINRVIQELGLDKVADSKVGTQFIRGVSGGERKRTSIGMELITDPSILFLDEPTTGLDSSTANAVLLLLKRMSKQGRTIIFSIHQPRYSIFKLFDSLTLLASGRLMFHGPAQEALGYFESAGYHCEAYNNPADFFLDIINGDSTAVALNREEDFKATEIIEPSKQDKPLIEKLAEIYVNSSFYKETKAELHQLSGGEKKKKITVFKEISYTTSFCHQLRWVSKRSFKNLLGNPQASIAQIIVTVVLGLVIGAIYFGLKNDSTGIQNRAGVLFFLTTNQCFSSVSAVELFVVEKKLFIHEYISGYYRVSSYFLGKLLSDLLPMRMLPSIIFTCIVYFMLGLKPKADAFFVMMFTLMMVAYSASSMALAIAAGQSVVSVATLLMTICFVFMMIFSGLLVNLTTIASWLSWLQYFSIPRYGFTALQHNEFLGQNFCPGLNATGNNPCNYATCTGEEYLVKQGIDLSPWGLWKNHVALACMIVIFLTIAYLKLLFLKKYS
Procedure: This study examined the potential of EC-18 to interact with the transporter proteins that have been known to be involved in the absorption of commercially available drugs. EC-18 was pre-incubated with HEK-293 cells and LLC-PK1 cells that were transfected with the genes of most drug transporters as follows: OATP1B1, OATP1B3, OAT1, OAT3 and OCT2, and BCRP and P-gp, respectively.

[1] = In vitro metabolite screening, dog liver microsomes; type: in vitro ADME; conditions: N=2
Procedure: (§1) [^14C]EC-18 or the positive control (7-ethoxycoumarin; 7-EC) reacted with microsomes prepared from hepatocytes of rats, dogs, monkeys, and humans, with or without cofactors, for 60 and 120 min. Then, the residual EC-18 concentration over time was measured by LC-RID ([^14C]EC-18) or LC-MS/MS (7-EC) (FIG. 63 and FIG. 64).
(§2) The LC-RID chromatographic profiles of radioactive metabolites produced in the 2-hr incubation reaction mixtures of the same test systems A, B, and C used to assess the metabolic and non-metabolic elimination rates of EC-18 were compared to the LC-UV chromatographic profiles of the synthetic reference material. […] The relative radioactivity of EC-18 accounted for 42-67% of total radioactivity. The peaks designated as M2, M3, and M5 were also determined in all species, and their relative radioactivity accounted for 12-34% of total radioactivity. The peaks of M4 and M6 were determined in monkeys and humans. M1 was abundantly detected in all species, but it was assumed to be a peak of early elution. The LC-UV chromatograms of reaction mixtures in each test system (FIGS. 65A-65C) and the relative radioactivity of the screened metabolites are shown in Table 25.

SD rat = test: Repeated dose toxicity, SD rat; type: in vivo; conditions: Oral
From the text: (§3) Various toxicology studies have been performed. All studies were GLP-compliant unless otherwise noted.

[2] = Repeated dose toxicity, SD rat; type: in vivo; conditions: SD, rat, in vivo, Oral
From the text: as §3

Balb/c mice, 6.11 Gy TBI = test: Dosing schedule optimization (delayed treatment) in LD70/30 model; type: in vivo, mouse
Procedure: EC-18 was administered daily in-life with its optimal dosage (250 mg/kg) at 0, 1, 2, and 3 days after irradiation on Day 0. To examine the durable efficacy of EC-18, the survival was examined 15 days after the in-life phase without the daily treatment of EC-18.
EC-18 was administered daily in-life with its optimal dosage (250 mg/kg) at 0, 1, 2, and 3 days after irradiation on Day 0. The survival rate of the γ-radiation only group was 35%. The percentages of survival of the irradiated mice with EC-18+0d, +1d, +2d, and +3d were 80, 70, 55, and 80%, respectively (FIG. 72).

Balb/c mice, TBI = test: Estimation of dose reduction factor (DRF); type: in vivo, mouse
Procedure: Analysis of several TBI, 24-hr delayed administration of EC-18 at 250 mg/kg in Balb/c mice yields an estimate of the dose reduction factor (DRF) of EC-18.

CYP2D6 = CYP2D6 (Homo sapiens, UniProt P10635); test: CYP enzyme inhibition in human liver microsomes, CYP2D6
Chain of CYP2D6 (P10635 whole entry): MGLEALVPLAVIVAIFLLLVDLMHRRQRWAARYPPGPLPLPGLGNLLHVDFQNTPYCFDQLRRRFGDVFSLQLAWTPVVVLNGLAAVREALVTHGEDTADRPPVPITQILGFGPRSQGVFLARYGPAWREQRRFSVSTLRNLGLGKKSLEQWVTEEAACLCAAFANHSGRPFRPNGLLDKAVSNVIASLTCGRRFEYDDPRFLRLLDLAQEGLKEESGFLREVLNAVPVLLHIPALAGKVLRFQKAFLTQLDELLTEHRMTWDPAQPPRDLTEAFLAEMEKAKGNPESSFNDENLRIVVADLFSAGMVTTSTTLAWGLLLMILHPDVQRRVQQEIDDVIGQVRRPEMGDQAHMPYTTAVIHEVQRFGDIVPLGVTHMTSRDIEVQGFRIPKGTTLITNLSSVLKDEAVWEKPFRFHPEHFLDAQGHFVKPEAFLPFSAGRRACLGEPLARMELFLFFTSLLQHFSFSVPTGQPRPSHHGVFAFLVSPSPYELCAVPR
From the text: CYP1A2, CYP2C9, CYP2C19, CYP2D6, and CYP3A4 are the CYP subfamily, which plays a critical role in the metabolism of most drugs.

[3] = In vitro metabolic stability / metabolite screening, statements over all species; type: in vitro ADME, rat, dog, monkey, human
Procedure: as §1, §2

[4] = tested on: Balb/c mice, TBI 6.5 or 8 Gy; test: Radiation-induced skin damage (erythema) in lethal ARS mouse models; type: in vivo
From the text: In order to evaluate effects of PLAG on recovery skin damage of animal models exposed to radiation, the following test groups were constructed as shown in Table 4 and results are shown in FIGS. 13-15. As discussed in Examples above, the first group of untreate group (negative control) of mice after radiation was compared to the second group of treated group of mice with PLAG after radiation.
In addition to the ARS survival studies that have been conducted in mice, a series of studies that probe secondary measures of efficacy in radiation-induced skin damage in the Balb/c mice (n=10/sex/group). […] The development of skin damage (erythema and reddening) on the tails were evaluated.
In the following study, Balb/c mice (n=5 females/group) were exposed with a supra-lethal radiation dosage of 8 Gy and treated with EC-18 daily at 250 mg/kg/day for 17 days.
The secondary measures of EC-18's efficacy on the supra-LD (8 Gy) of radiation-induced skin damage were assessed. Female BALB/c mice (9 weeks of age) were randomly divided into 2 cohorts and daily administered in-life with the vehicle control (PBS) and EC-18 at 250 mg/kg (n=5/each cohort).

[5] = 6.11 Gy, 250 mg/kg daily starting +0 d
[6] = 6.11 Gy, 250 mg/kg daily starting +1 d
[7] = 6.11 Gy, 250 mg/kg daily starting +2 d
[8] = 6.11 Gy, 250 mg/kg daily starting +3 d
[9] = 6.11 Gy, 250 mg/kg daily starting +3 d, 250 mg/kg

For `CCCCC/C=C\C/C=C\CCCCCCCC(=O)OC(COC(C)=O)COC(=O)CCCCCCCCCCCCCCC` (centres unmarked) [EC-18, 1-palmitoyl-2-linoleoyl-3-acetylglycerol], the IC50 (BCRP) was greater than 32 µM, the “Mean Peak Area in LC-RID” value ([1]; A (NADPH added), [14C]EC-18 2 hrs) was 52.6% and the “Mean Peak Area in LC-RID” value ([1]; B (NADPH, PAPS, UDPGA added), 2 hrs) was 54.3%. For the same molecule, the “Mean Peak Area in LC-RID” value ([1]; C (no cofactor added), 2 hrs) was 56.6%, the findings (SD rat; 4 weeks (DRF)) was “No specific findings” and the mortality (SD rat; 4 weeks (DRF), 0, 500, 1000, 2000 mg/kg) was “No dead animals”. For the same molecule, the findings (SD rat; 13 weeks) was “No specific findings”, the mortality (SD rat; 13 weeks, 0, 500, 1000, 2000 mg/kg) was “No dead animals” and the findings (SD rat; 26 weeks (4-week recovery)) was “No specific findings”. For the same molecule, the mortality (SD rat; 26 weeks (4-week recovery), male in 500 mg/kg group, 41st day, no relationship to EC-18 dosing) was “A single case of death”, the NOAEL at 4 weeks ([2]; 4 weeks (DRF)) was greater than 2000 mg/kg/day and the NOAEL at 13 weeks ([2]; 13 weeks) was greater than 2000 mg/kg/day. The NOAEL at 26 weeks ([2]; 26 weeks (4-week recovery)) was greater than 2000 mg/kg/day, the “survival vs negative control” value (Balb/c mice, 6.11 Gy TBI; 250 mg/kg, even up to 3-day-delayed treatment regimen) was “significantly improved” and the “weight loss induced by irradiation” value (Balb/c mice, 6.11 Gy TBI; 6.11 Gy, 250 mg/kg) was “effectively prevented and rapidly recovered weight loss”. The “No. of mice that survived/total” value (Balb/c mice, 6.11 Gy TBI; [5]) was 16/20, the Survival (Balb/c mice, 6.11 Gy TBI; [5]) was 80% and the “Survival time of decedents, Median” value (Balb/c mice, 6.11 Gy TBI; [5]) was 24.5 days. The “Survival time of decedents, Mean ± SEM” value (Balb/c mice, 6.11 Gy TBI; 6.11 Gy, 250 mg/kg daily starting +0 d, 250 mg/kg) was 25.0 days and 25.0 ± 1.1 days, the “No. of mice that survived/total” value (Balb/c mice, 6.11 Gy TBI; [6]) was 14/20 and the Survival (Balb/c mice, 6.11 Gy TBI; [6]) was 70%. For the same molecule, the “Survival time of decedents, Median” value (Balb/c mice, 6.11 Gy TBI; [6]) was 23.5 days, the “Survival time of decedents, Mean ± SEM” value (Balb/c mice, 6.11 Gy TBI; 6.11 Gy, 250 mg/kg daily starting +1 d, 250 mg/kg) was 23.7 days and 23.7 ± 1.4 days and the “No. of mice that survived/total” value (Balb/c mice, 6.11 Gy TBI; [7]) was 11/20. The Survival (Balb/c mice, 6.11 Gy TBI; [7]) was 55%, the “Survival time of decedents, Median” value (Balb/c mice, 6.11 Gy TBI; [7]) was 18.0 days and the “Survival time of decedents, Mean ± SEM” value (Balb/c mice, 6.11 Gy TBI; 6.11 Gy, 250 mg/kg daily starting +2 d, 250 mg/kg) was 18.1 days and 18.1 ± 0.8 days. The “No. of mice that survived/total” value (Balb/c mice, 6.11 Gy TBI; [8]) was 11/20, the “Survival time of decedents, Median” value (Balb/c mice, 6.11 Gy TBI; [8]) was 23.0 days and the Survival (Balb/c mice, 6.11 Gy TBI; [9]) was 80% and 55%. For the same molecule, the “Survival time of decedents, Mean ± SEM” value (Balb/c mice, 6.11 Gy TBI; [9]) was 22.3 days and 22.3 ± 1.6 days, the “durable efficacy after withdrawal of EC-18” value (Balb/c mice, 6.11 Gy TBI; 15 days after the in-life phase without daily treatment) was “extended the survival of animals for an extra 15 days” and the “DRF at LD30/30” value (Balb/c mice, TBI; 250 mg/kg) was 1.45. The “DRF at LD70/30” value (Balb/c mice, TBI; 250 mg/kg) was 1.18, the “DRF at LD95/30” value (Balb/c mice, TBI; 250 mg/kg) was 1.05 and the “LD Estimate LD30/30, Presence of EC-18” value (Balb/c mice, TBI; 250 mg/kg) was 5.26 Gy. For the same molecule, the “LD Estimate LD50/30, Presence of EC-18” value (Balb/c mice, TBI; 250 mg/kg) was 5.50 Gy, the “LD Estimate LD70/30, Presence of EC-18” value (Balb/c mice, TBI; 250 mg/kg) was 5.76 Gy and the “LD Estimate LD95/30, Presence of EC-18” value (Balb/c mice, TBI; 250 mg/kg) was 6.09 Gy. For the same molecule, the “Lethality, Presence of EC-18” value (Balb/c mice, TBI; 6.11 Gy, 250 mg/kg 24-hr delayed) was 6/40 (15%), the “Lethality, Presence of EC-18” value (Balb/c mice, TBI; 6.5 Gy, 250 mg/kg 24-hr delayed) was 8/20 (40%) and the “Lethality, Presence of EC-18” value (Balb/c mice, TBI; 7 Gy, 250 mg/kg) was 10/10 (100%). The “Lethality, Presence of EC-18” value (Balb/c mice, TBI; 8 Gy, 250 mg/kg) was 10/10 (100%), the “Lethality, Presence of EC-18” value (Balb/c mice, TBI; 10 Gy, 250 mg/kg) was 4/4 (100%) and the IC50 (CYP2D6) was 67.9 µM. For the same molecule, the “relative radioactivity of total radioactivity” value ([3]; 2-hr incubation, all species and test systems) was 42-67%, the “residual EC-18 concentration relative to initial concentration” value ([3]; 1 hr, test systems A, B, C, all species) was no less than 50% and the “order of residual EC-18 concentration” value ([3]; 2 hrs) was “human>rat and dog>monkey”. For the same molecule, the “residual EC-18 concentration” value ([3]; 2 hrs, all test systems, all species except monkeys) was no less than 50%, the “skin damage (erythema and reddening) on the tails vs PBS” value ([4]; 6.5 Gy, 250 mg/kg/day 30 days) was “substantial reduction of tail erythema” and the “skin damage (necrosis, ulceration, blistering, hair loss) on tails and feet vs PBS” value ([4]; 8 Gy, 250 mg/kg/day 17 days, n=5 females) was “extensively reduced”. The “mice with any skin damage on the tails” value ([4]; 8 Gy, 250 mg/kg, n=5, day 10) was “none of the five” and the “mice with slight hemorrhagic telangiectasia on the front right feet” value ([4]; 8 Gy, 250 mg/kg, n=5, day 10) was “Only one individual”.
